Laboratory results taken from PMC9059126, “Structure-Based Design of a Novel Class of Autotaxin Inhibitors Based on Endogenous Allosteric Modulators” (Journal of Medicinal Chemistry, 2022).
Read-outs that look alike come from different tables or passages of the source.

Tests used:
ATX [1] = conditions: cited from earlier work
ATX tunnel = test system: ATX tunnel; parameters: method as in PMID 27075612; conditions: partial non-competitive modulators; cited from earlier work
ATX [2] = target: T1, ATX (Rattus norvegicus, UniProt Q64610); assay: Choline oxidase-coupled choline-release assay of LPC hydrolysis by ATX
ATX [3] = target: T1, ATX; assay: Competition with LPA allostery (LPA-mediated activation of ATX); assay type: biochemical; parameters: made in house; conditions: inhibitor at concentrations close to or lower than IC50; 150 μM 18:1 LPC, 18:1 LPA, 20 nM ATX
Method: The activation assays using LPA were performed in a similar way to those done for the inhibitors. In this case, LPA was dissolved in ethanol/H20 (1:1) and 0.01% TX-100 and was added to the reaction buffer. The presence of ethanol was taken into account, and controls in the absence of ATX and/or LPC were employed to correct the kinetic data. ATX was incubated for 30 min with different concentrations of inhibitors and subsequently added to the reaction buffer containing 150 μM 18:1 LPC and different starting concentrations of 18:1 LPA. The slopes were calculated from at least 60 min after the addition of ATX. The percentage of LPA-driven activation was normalized to ATX in the absence of LPA and inhibitors, which represented 100% activity. Last, the activation constant or AC50 was obtained from the following equation [drawing 2] 2

ATX [4] = target: T1, ATX; assay: Mechanistic studies: mode of inhibition and Ki from LPC titration; assay type: biochemical; parameters: made in house
Method: The biochemical studies of ATX lysoPLD activity were performed with ATX. Activity was measured by a coupled reaction with 1 U mL^–1 choline oxidase and 2 U mL^–1 horseradish peroxidase (HRP) and 2 mM homovanillic acid (HVA) (all from Sigma-Aldrich). For the assays, 14:0, 16:0, 18:1, and 20:0 LPC (Avanti Polar Lipids Inc.) were incubated with 20 nM ATX, reaching a final volume of 100 μL of the buffer, which contained 50 mM Tris, 0.01%, 50 mM CaCl2, Triton X-100, pH 7.4. Steady-state choline release was measured at 37 °C by HVA fluorescence at λex/λem = 320/460 nm in Corning 96- or 384-well OptiPlate (Sigma-Aldrich) and with a Pherastar plate reader (BMG Labtech). […] The resulting fluorescence intensity signal over time was used to model all inhibitor concentrations simultaneously using the following formula, where vmax and vmin were fitted for the minimum and maximum relative velocities, respectively, and ci corresponds to the inhibitor concentration for each assay[20] [drawing 1] 1
To statistically determine the chance of each type of inhibition, we calculated the α value in the partial mixed inhibition model (eq 5), where Part defines the partiality of the inhibition, and α > 1 or α = 1 correspond to competitive and non-competitive inhibition modes, respectively. Last, we utilized Akaike’s Information Criterion[42] to assess the significance of the analysis [drawing 5] 5

[5] = test system: LPA1-HA-expressing HeLa-Flp-In cells; assay: Confocal microscopy for LPA1 internalization; assay type: cell-based, Human; conditions: 1 μM 18:1 LPC, 20 nM ATX, 15 min
Method: Human LPA1 cDNA was amplified by PCR to remove its stop codon and add the restriction sites for BamHI and XhoI, after which it was subcloned in an in-house produced pDNA5.1-HA vector. 0.2 μg of the resulting vector and 1.8 μg of pOG44 Flp-Recombinase Expression Vector (Invitrogen) were incubated with 6 μL of Fugene6 (Invitrogen) in 200 μL of OptiMEM (Gibco) for 30 min, after which the mix was added to previously produced HeLa-Flp-In cells.[43] Their medium was refreshed 24 h later, and selection with 1 μg/mL puromycin was started and maintained with resistant cells.
Serum-starved LPA1-HA-expressing HeLa-Flp-In cells cultured on 24 mm (#1,5) were treated with 1 μM LPC and 20 nM ATX in the presence or absence of 22 or 23 for 15 min in DMEM containing 0.05% fatty acid-free BSA. Subsequently, coverslips were washed and fixed with 4% PFA, permeabilized with 0.1% Triton X-100, and blocked with 2% BSA for 1 h. Incubation with anti-HA antibody (3F10 from Roche Diagnostics; 1:200) was done for 1 h, followed by incubation with donkey anti-rat Alexa Fluor 488-conjugated antibody (A-21208 from Invitrogen; 1:200) for 1 h at room temperature. For confocal microscopy, cells were washed with PBS, mounted with Immnuno-MountTM (Thermo Scientific), visualized on a LEICA TCS-SP5 confocal microscope (63× objective), and analyzed using ImageJ software.

BJeH fibroblasts = assay: AKT and ERK phosphorylation by western blotting; assay type: cell-based; conditions: Homo sapiens, 0.25 h, 15 min
Method: 100,000 BJeH cells were seeded in 12-well tissue culture plates and allowed to grow for 24 h in DMEM (GIBCO, Life Technologies) containing 10% FCS (Thermo Scientific) and 100 U mL^–1 streptomycin/penicillin (GIBCO, Life Technologies). Next, they were washed twice with phosphate-buffered saline (PBS) and serum-starved O/N. ATX 20 nM was incubated with inhibitors for 30 min in a serum-free medium containing 0.05% (w/v) fatty acid-free BSA (total volume 1 mL). The medium from the 12-well plates was removed and replaced with 1 mL of the ATX–inhibitor mixture. Cells were stimulated for 15 min, the medium was removed, and plates were immediately frozen on dry ice and stored at −80 °C. For western blotting, cells were washed with cold PBS; lysed in RIPA buffer; supplemented with protease inhibitors (Pierce), 20 mM NaF and 1 mM orthovanadate; and spun down. The protein concentration was measured using a BCA protein assay kit (Pierce), and LDS sample buffer (NuPAGE, Invitrogen) and 1 mM dithiothreitol were added to the lysate. 20 μg of the total protein was loaded on sodium dodecyl sulfate–polyacrylamide gel electrophoresis pre-cast gradient gels (4–12% Nu-Page Bis-Tris, Invitrogen), followed by transfer to a nitrocellulose membrane. Non-specific protein binding was blocked by 5% BSA in PBS-Tween (0.1%); the primary antibodies were phospho-Akt (Ser473), catalogue number: D93, dilution: 1:1,000; phospho-ERK1/2 (Thr202/Tyr204), catalogue number: D13.14.4E, dilution: 1:2,000, from Cell Signaling Technology. They were incubated O/N at 4 °C in PBS–Tween with 5% BSA, containing 0.1% NaN3. Blots were then incubated for 1 h at room temperature with monoclonal anti-β-actin antibody, clone AC-15, dilution: 1:10,000, from Sigma, which was dissolved in PBS–Tween with 5% skimmed milk containing 0.1% NaN3. HRP-conjugated secondary antibodies [goat anti-mouse (Bio-Rad), catalogue number: 1721011; goat anti-rabbit (Pierce), catalogue number: 1858415] were incubated for 1 h at room temperature in PBS–Tween with 2.5% BSA and developed using an ECL Western blot reagent.

MDA-MB-231 cells = assay: Boyden chamber cell migration assay; assay type: cell-based; conditions: migration for 4 h; for EC50: 20 nM ATX, 1 μM 18:1 LPC
Method: Migration of MDA-MB-231 cells was performed using 48-well chemotaxis chambers (Neuro Probe, Inc.) equipped with […] pore polycarbonate membranes, which were coated with fibronectin (10 μg/mL) (F1141, Sigma-Aldrich). Cells (2 × 10^6 cells/mL) were added to the upper chamber. 0.05% fatty acid-free BSA was used as a lysophospholipid carrier. Cells were allowed to migrate for 4 h at 37 °C in humidified air containing 5% CO2. Migrated cells were fixed in Diff-Quik Fix and stained using Diff-Quik II. Migration was quantified by color intensity measurements using Photoshop software.

[6] = 14:0 LPC, 150 μM LPC, 20 nM ATX
[7] = 16:0 LPC, 150 μM LPC, 20 nM ATX
[8] = 18:1 LPC, 150 μM LPC, 20 nM ATX
[9] = LPC hydrolysis assay, 20 nM ATX

2-[[2-Ethyl-6-[4-[2-(3-hydroxyazetidin-1-yl)-2-oxoethyl]piperazin-1-yl]-8-methylimidazo[1,2-a]pyridin-3-yl]methylamino]-4-(4-fluorophenyl)thiazole-5-carbonitrile [Compound 3]
IC50 (ATX [1]): 131 nM

C[C@H](CCC(=O)O)[C@H]1CC[C@H]2[C@@H]3[C@@H](O)C[C@@H]4C[C@H](O)CC[C@]4(C)[C@H]3CC[C@]12C [Compound 9, ursodeoxycholic acid, reference compound]
affinity for the ATX tunnel (ATX tunnel): micromolar
IC50 (ATX [2]): 9000 nM

C[C@H](CCC(=O)N1CCC(Oc2ccc(B(O)O)cc2)CC1)[C@H]1CC[C@H]2C3[C@@H](O)C[C@@H]4C[C@H](O)CC[C@]4(C)[C@H]3CC[C@]12C (stereo partly drawn) [Compound 23]
LPA-mediated activation of ATX activity (ATX [3]): dose-dependent decrease
percentage of competitive versus non-competitive inhibition (ATX [4]; Akaike's informative criteria): 99%
mode of inhibition (ATX [4]; LPC hydrolysis): competitive
Ki (ATX [4]; LPC titration at increasing inhibitor concentrations, Michaelis-Menten nonlinear regression): 9 ± 1 nM
α (partial mixed inhibition model) (ATX [4]; α > 1 competitive, α = 1 non-competitive): 8.5
IC50 (ATX [2]; [6]): 54 nM
Residual Activity (%) (ATX [2]; [6]): 0%
IC50 (ATX [2]; [7]): 34 nM
Residual Activity (%) (ATX [2]; [7]): 12%
IC50 (ATX [2]; [8]): 29 nM
Residual Activity (%) (ATX [2]; [8]): 7%
IC50 (ATX [2]; 20:0 LPC, 150 μM LPC, 20 nM ATX): 33 nM
Residual Activity (%) (ATX [2]; 20:0 LPC, 150 μM LPC, 20 nM ATX, % of catalytic rate of inhibitor-free control): 51%
IC50 (ATX [2]; [9]): 30 nM
Residual Activity (%) (ATX [2]; [9]): 0%
decrease of LPA1 internalization [5]: approximately 75%
EC50 (BJeH fibroblasts; BJeH cells, 20 nM ATX, 1 μM 18:1 LPC, read-out: EC50 (P-AKT and P-ERK levels)): ~60 nM
Emax (BJeH fibroblasts; BJeH, compared to uninhibited ATX incubated with LPC, read-out: reduction of maximal effective cell response (P-AKT and P-ERK)): ~60%
EC50 (MDA-MB-231 cells; Homo sapiens, MDA-MB-231, 4 h): 186 ± 99 nM
EC50 (MDA-MB-231 cells): ~200 nM
reduction of cell migration (MDA-MB-231 cells; ATX + LPC): ~50%
